From publication PMC10806767 (JACS Au, 2023)
Ends that are not written are not given here.

T1: recombinant protein His-SND1 (16-339) (UniProt Q7KZF4 16-339)
T1 sequence (looked up): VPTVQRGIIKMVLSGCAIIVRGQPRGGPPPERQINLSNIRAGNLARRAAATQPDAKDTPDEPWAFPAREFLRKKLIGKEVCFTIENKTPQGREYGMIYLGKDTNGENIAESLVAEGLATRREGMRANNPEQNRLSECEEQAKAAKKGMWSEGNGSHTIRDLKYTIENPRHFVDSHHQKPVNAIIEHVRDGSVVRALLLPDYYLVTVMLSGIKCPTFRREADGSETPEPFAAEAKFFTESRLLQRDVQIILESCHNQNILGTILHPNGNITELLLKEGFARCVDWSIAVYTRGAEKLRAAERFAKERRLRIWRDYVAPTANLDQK

B1: MS2D-E (peptide, UniProt Q86UE4 393-407, looked up)
peptide: DWNEPAEEWGNWVDE
modifications: also: FITC label (position not given here)

Tests used:
breast cancer cells = experiment: Wound healing assay; type: cell-based; details: 36 h, compared with the control group
[1] = tested on: 4T1-luc mouse mammary tumor; experiment: In vivo antitumor efficacy and biosafety study, 4T1-luc tumor-bearing mice; details: 8 mg/kg, peritumoral injection every other day, 19 days
[2] = molecular target: T1, recombinant protein His-SND1 (16-339); experiment: fluorescence polarisation

| Molecule | tumor migration suppression (breast cancer cells) | tumor growth suppression (in words) [1] | Kd [2] |
| --- | --- | --- | --- |
| C[S+]1CC[C@@H](C(=O)N[C@@H](CCC(=O)O)C(=O)N[C@@H](Cc2c[nH]c3ccccc23)C(=O)O)NC(=O)[C@H](CCCNC(=N)N)NC(=O)[C@H](Cc2c[nH]cn2)NC(=O)[C@H](CCC(=O)O)NC(=O)[C@@H](NC(=O)[C@H](CCCNC(=N)N)NC(=O)[C@H](CCCNC(=N)N)NC(=O)OCC2c3ccccc3-c3ccccc32)CC[S+](C)Cc2cccc(c2)C1 (stereo partly drawn) [Wpc] | little effect | failed to suppress the tumor growth |  |
| B1 |  |  | ~34 nM |
